These results are taken from patent US12428370B2, “Haloallylamine dual amine oxidase inhibitors” (Syntara Limited, priority 2020, dated 2025).

Bounds are passed on as bounds.

In assay [1] the target is T1, human recombinant SSAO/VAP-1 (Homo sapiens, UniProt Q16853).
T1 construct: a cloned cDNA template corresponding to residues 34-763 of human SSAO/VAP-1; TEV cleavage site (N); made in house
T1 sequence (Q16853 34-763): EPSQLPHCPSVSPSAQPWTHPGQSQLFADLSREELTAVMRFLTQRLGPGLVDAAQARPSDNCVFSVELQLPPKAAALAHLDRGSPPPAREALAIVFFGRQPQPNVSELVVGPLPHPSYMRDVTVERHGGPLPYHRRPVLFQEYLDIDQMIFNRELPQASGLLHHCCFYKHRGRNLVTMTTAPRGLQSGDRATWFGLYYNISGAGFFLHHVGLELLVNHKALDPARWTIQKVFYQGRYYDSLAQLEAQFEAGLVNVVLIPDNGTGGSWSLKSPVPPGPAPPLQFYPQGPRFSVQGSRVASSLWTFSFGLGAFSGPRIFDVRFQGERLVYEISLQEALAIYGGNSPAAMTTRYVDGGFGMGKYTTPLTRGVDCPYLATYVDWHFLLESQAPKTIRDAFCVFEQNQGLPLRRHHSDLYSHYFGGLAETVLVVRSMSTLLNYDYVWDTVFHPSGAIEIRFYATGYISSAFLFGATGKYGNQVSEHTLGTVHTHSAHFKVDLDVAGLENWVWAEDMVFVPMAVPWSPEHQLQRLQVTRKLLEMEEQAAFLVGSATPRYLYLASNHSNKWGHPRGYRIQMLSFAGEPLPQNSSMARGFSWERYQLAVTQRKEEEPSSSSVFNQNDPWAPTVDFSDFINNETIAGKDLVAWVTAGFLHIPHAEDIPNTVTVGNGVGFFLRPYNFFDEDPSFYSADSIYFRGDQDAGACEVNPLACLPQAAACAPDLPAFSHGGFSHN
The assay is described as follows: Inhibition of human recombinant SSAO/VAP-1 (Amplex Red fluorometric assay). The format is biochemical. The settings on record: 30 min incubation, 37° C., benzylamine substrate. How it is done:
Method to Determine the Ability of Compounds of Formula I to Inhibit Human Recombinant SSAO/VAP-1
Human recombinant SSAO/VAP-1 amine oxidase activity was determined using the method as described for monoamine oxidase, copper-containing amine oxidases and related enzymes (Holt A. and Palcic M., Nat. Protoc. 2006, 1, 2498-2505). Briefly, a cloned cDNA template corresponding to residues 34-763 of human SSAO/VAP-1, and incorporating a mouse Ig kappa (κ) signal sequence, N-terminal flag epitope tag and tobacco etch virus (TEV) cleavage site, was assembled in a mammalian expression vector (pLO-CMV) by Geneart AG. This vector containing human SSAO/VAP-1 residues was transfected into CHO-K1 glycosylation mutant cell line, Lec 8. A clone stably expressing human SSAO/VAP-1 was isolated and cultured in large scale. Active human SSAO/VAP-1 was purified and recovered using immunoaffinity chromatography. This was used as the source for SSAO/VAP-1 activity. A high-throughput colorimetric assay was developed using either 96 or 384 well format. Briefly, in a standard 96 well plate assay 50 μL of purified human SSAO/VAP-1 (0.25 μg/mL) in 0.1 M sodium phosphate buffer (pH 7.4) was added into each well. […] After 30 min incubation, 50 μL of the reaction mixture containing 600 μM benzylamine (Sigma Aldrich), 120 μM Amplex Red (Sigma Aldrich) and 1.5 U/mL horseradish peroxidase (Sigma Aldrich) prepared in 0.1 M sodium phosphate buffer (pH 7.4) were added to the corresponding well. The fluorescence unit (RFU) was read every 2.5 min for 30 min at 37° C. excitation 565 nm and emission 590 nm (Optima; BMG labtech). The slope of the kinetics for each well was calculated using MARS data analysis software (BMG labtech) and this value was used to deduce the IC50 value (Dotmatics).

The next assay addresses T2, Recombinant human MAO-B (Homo sapiens, UniProt P27338).
T2 construct: purchased Sigma Aldrich
T2 sequence (P27338 1-520): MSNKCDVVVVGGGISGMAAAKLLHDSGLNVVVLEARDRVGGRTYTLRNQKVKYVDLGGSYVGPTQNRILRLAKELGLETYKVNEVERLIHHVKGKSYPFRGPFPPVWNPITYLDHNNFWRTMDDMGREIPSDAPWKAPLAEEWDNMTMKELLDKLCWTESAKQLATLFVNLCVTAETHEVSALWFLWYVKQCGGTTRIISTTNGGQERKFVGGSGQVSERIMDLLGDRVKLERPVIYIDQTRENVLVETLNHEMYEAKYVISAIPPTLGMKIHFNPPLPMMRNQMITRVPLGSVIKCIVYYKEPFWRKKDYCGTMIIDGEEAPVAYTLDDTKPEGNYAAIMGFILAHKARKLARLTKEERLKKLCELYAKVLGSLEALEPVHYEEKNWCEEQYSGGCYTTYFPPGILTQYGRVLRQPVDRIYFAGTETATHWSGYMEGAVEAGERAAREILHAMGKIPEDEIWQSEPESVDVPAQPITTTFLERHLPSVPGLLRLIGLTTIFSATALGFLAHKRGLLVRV
The assay is described as follows: Inhibition of human recombinant MAO-B. The format is biochemical. Particulars: incubation time of 2 hours, benzylamine 100 μM. How it is done:
Method to Determine the Ability of Compounds of Formula I to Inhibit Human Recombinant MAO-B
The ability of the compounds of this invention to inhibit MAO-B activities in vitro was tested. Recombinant human MAO-B (0.06 mg/mL; Sigma Aldrich) was used as source of MAO-B enzyme activities.

A further assay concerns the target T3, recombinant human MAO-A (Homo sapiens, UniProt P21397).
T3 construct: purchased Sigma Aldrich
T3 sequence (P21397 1-527): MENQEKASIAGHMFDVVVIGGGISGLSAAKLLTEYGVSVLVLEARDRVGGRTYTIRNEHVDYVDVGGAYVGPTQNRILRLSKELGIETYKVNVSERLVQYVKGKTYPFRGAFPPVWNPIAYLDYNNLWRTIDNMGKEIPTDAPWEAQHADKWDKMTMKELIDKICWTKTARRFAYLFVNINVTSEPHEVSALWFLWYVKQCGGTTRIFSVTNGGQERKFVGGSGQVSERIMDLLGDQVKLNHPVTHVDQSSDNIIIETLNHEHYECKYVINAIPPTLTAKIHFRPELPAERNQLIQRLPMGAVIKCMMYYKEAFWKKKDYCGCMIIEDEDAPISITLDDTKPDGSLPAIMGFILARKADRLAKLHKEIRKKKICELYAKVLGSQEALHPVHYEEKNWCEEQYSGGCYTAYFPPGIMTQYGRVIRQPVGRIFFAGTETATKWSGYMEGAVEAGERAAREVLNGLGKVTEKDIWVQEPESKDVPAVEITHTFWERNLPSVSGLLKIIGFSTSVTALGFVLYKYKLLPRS
Description: Inhibition of human recombinant MAO-A. Particulars: incubation time of 2 hours, tyramine 100 μM. The format is biochemical. How it is done:
Method to Determine the Ability of Compounds of Formula I to Inhibit Human Recombinant MAO-A
The selectivity of the compounds of this invention was tested by determining their ability to inhibit MAO-A activity in vitro, using recombinant human MAO-A (0.003 mg/mL; Sigma Aldrich). The assay was performed in a similar way as for human SSAO/VAP-1 (EXAMPLE 9) except, the substrate tyramine was used at 100 μM in place of benzylamine and the assay was run after an incubation time of 2 hours.

The subject of assay [2] is Myogenic cell cultures from both mdx mice and DMD patients. The settings on record: in vitro; cited from earlier work.
For another assay, the system named is mdx mice. Particulars: 3-month old mdx mice, Vitiello L. et al. 2018; cited from earlier work.

In the case of `NC/C(=C\F)COc1ccc(C(F)(F)F)cc1` [Compound 11], the IC50 (in general, the point on the concentration scale where inhibition reaches its midpoint) in assay [1] was under 10 nM; on Recombinant human MAO-B, under 50 nM; on recombinant human MAO-A, 3000 to 30000 nM.

For the compound `N#Cc1ccc(OC/C(=C\F)CN)cc1` [Compound 6], the 50% inhibitory concentration (IC50) in assay [1] was under 10 nM; at Recombinant human MAO-B, under 50 nM; at recombinant human MAO-A, 300 to 3000 nM.

With `N#Cc1cccc(OC/C(=C/F)CN)c1` [Compound 9], the IC50 is under 10 nM in assay [1], under 50 nM at Recombinant human MAO-B and 300 to 3000 nM at recombinant human MAO-A.

With `Cc1cc(OC/C(=C/F)CN)ccc1C#N` [Compound 5, (E)-4-((2-(aminomethyl)-3-fluoroallyl)oxy)-2-methylbenzonitrile], the half-maximal inhibitory concentration (IC50) is under 10 nM in assay [1], under 50 nM at Recombinant human MAO-B and 3000 to 30000 nM on recombinant human MAO-A.

As for `CS(=O)(=O)c1ccc(OC/C(=C/F)CN)cc1` [Compound 12], the IC50 in assay [1] was under 10 nM; on Recombinant human MAO-B, over 1000 nM; on recombinant human MAO-A, over 30000 nM.

For the compound `N#Cc1ccccc1OC/C(=C/F)CN` [Compound 8], the IC50 in assay [1] is over 1000 nM; on Recombinant human MAO-B, under 50 nM; on recombinant human MAO-A, under 300 nM.

`NC/C(=C\F)COc1ccccc1` [Compound 10]: the IC50 was 10 to 500 nM in assay [1], under 50 nM at Recombinant human MAO-B and 300 to 3000 nM on recombinant human MAO-A.

Consider `COc1ccc(OC/C(=C\F)CN)cc1` [Compound 14], for which the IC50 in assay [1] is under 10 nM; on Recombinant human MAO-B it was under 50 nM; at recombinant human MAO-A it was 300 to 3000 nM.

For `C[C@H](NCc1ccc(OCc2cccc(F)c2)cc1)C(N)=O` [safinamide], the “susceptibility (sensitivity) to oxidative stress” value in assay [2] is “abrogated”. In the assay with mdx mice, the “myofiber damage, oxidative stress and muscle function” value is “reduced myofiber damage and oxidative stress, and improved muscle function”.

As to `COc1cc(OC/C(=C/F)CN)ccc1C#N` [Compound 7], the 50% inhibitory concentration (IC50) is 10 to 500 nM in assay [1], 50 to 500 nM at Recombinant human MAO-B and over 30000 nM at recombinant human MAO-A.

On to `NC/C(=C\F)COc1ccc(OC(F)(F)F)cc1` [Compound 13], for which the IC50 in assay [1] is under 10 nM; at Recombinant human MAO-B it was under 50 nM; on recombinant human MAO-A it was under 300 nM.

`N#Cc1ccc(OC/C(=C/F)CN)cc1F` [Compound 2, (E)-4-((2-(aminomethyl)-3-fluoroallyl)oxy)-2-fluorobenzonitrile]: the IC50 was under 10 nM in assay [1], under 50 nM at Recombinant human MAO-B and over 30000 nM at recombinant human MAO-A.

Consider `N#Cc1ccc(OC/C(=C/F)CN)c(F)c1` [Compound 4, (E)-4-((2-(aminomethyl)-3-fluoroallyl)oxy)-3-fluorobenzonitrile], for which the results for the concentration for half-maximal inhibition (IC50) (in assay [1]; at Recombinant human MAO-B; at recombinant human MAO-A) were under 10 nM, under 50 nM and 3000 to 30000 nM, respectively.

Turning to `N#Cc1ccc(OC/C(=C/F)CN)cc1Br` [Compound 3, (E)-4-((2-(aminomethyl)-3-fluoroallyl)oxy)-2-bromobenzonitrile], the IC50 is under 10 nM in assay [1], under 50 nM on Recombinant human MAO-B and 3000 to 30000 nM at recombinant human MAO-A.
